Results from patent EP2562253B1 (priority 2010, dated 2011).

tested on: wild-type enzyme RBS; test: not given; assay type: biochemical, Burkholderia sp. YT strain; conditions: pH 6.5

Which “Remaining activity (%)” value does the source give for `OC(CCCl)c1cccs1` (stereo not drawn) [3-Chloro-1-(2-thienyl)propan-1-ol] here?
Its value is 0%.

Which “Remaining activity (%)” value does the source give for `O=C(CCCl)c1cccs1` [3-Chloro-1-(2-thienyl)propan-1-one] here?
The value was 0%.

How did the “Remaining activity (%)” value turn out when `CC(C)=O` [Acetone] was run?
Its value is 80%.

With `CC(=O)c1ccccc1` [Acetophenone] as the compound, how does the “Remaining activity (%)” value read?
Its value is 81%.

How did the “Remaining activity (%)” value turn out when `CC(=O)c1cccs1` [Acetylthiophene] was run?
The value was 72%.

Which “Remaining activity (%)” value does the source give for `O=C(CCl)c1ccccc1` [Phenacyl chloride] here?
Its value is 0%.

Which “Remaining activity (%)” value does the source give for `O=C(CCl)c1cccc(Cl)c1` [m-chlorophenacyl chloride] here?
The value was 0%.

same assay, conditions: pH 6.5, 310000 µM

With `Cl.O=C1CN2CCC1CC2` [3-Quinuclidinone hydrochloride] as the compound, how does the “Remaining activity (%)” value read?
Its value is 73%.

With Potassium chloride as the compound, how does the “Remaining activity (%)” value read?
The value was 46%.

For Sodium chloride, which “Remaining activity (%)” value is on record?
Its value is 46%.

Which “Remaining activity (%)” value does the source give for Sodium sulfate here?
The value was 76%.

same assay, conditions: pH 6.5, 620000 µM

How did the “Remaining activity (%)” value turn out when `Cl.O=C1CN2CCC1CC2` [3-Quinuclidinone hydrochloride] was run?
The value was 44%.

For Potassium chloride, which “Remaining activity (%)” value is on record?
The value was 26%.

How did the “Remaining activity (%)” value turn out when Sodium chloride was run?
Its value is 24%.

Sodium sulfate was tested. Which “Remaining activity (%)” value did it give?
Its value is 79%.

tested on: wild-type enzyme RBS; test: Reaction inhibition of wild-type enzyme RBS by various compounds; assay type: biochemical, Burkholderia sp. YT strain; conditions: additive 0.31 M; 3-quinuclidinone 5 mM, NADPH 0.25 mM, pH 6.5, 30°C; 310000 µM
Protocol: A cell-free extract of the wild-type enzyme was obtained as in Reference Example 4. The 3-quinuclidinone reduction activity of this cell-free extract was measured, and given as activity without inhibitor. The cell-free extract was added to 100 mM phosphate buffer (pH 6.5) containing the compounds shown in Table 2, 3-quinuclidinone (5 mM) and the coenzyme NADPH (0.25 mM), and reacted for 1 minute at 30°C, and reduction activity of 3-quinuclidinone was calculated from the rate of decrease in absorbancy at 340 nm.
Relative activity was calculated by the following formula, and used as an indicator of reaction inhibition by the various compounds. Relative activity (%) = [enzyme activity in presence of compound]/[enzyme activity without inhibitor] × 100 [formula]

For Potassium chloride, which “Relative activity (%)” value is on record?
Its value is 14%.

Which “Relative activity (%)” value does the source give for Sodium chloride here?
The value was 15%.

For Sodium sulfate, which “Relative activity (%)” value is on record?
The value was 31%.

same assay, conditions: additive 0.62 M; 3-quinuclidinone 5 mM, NADPH 0.25 mM, pH 6.5, 30°C; 620000 µM

Which “Relative activity (%)” value does the source give for Potassium chloride here?
The value was 5%.

Which “Relative activity (%)” value does the source give for Sodium chloride here?
The value was 3%.

How did the “Relative activity (%)” value turn out when Sodium sulfate was run?
The value was 17%.
